This is an account of results in patent US20070099877A1, “N-aryl-thienopyrimidin-4-amines and analogs as activators of caspases and inducers of apoptosis and the use thereof” (Cytovia, Inc., priority 2005, published 2007).

Where a name gives a salt, the structure may show the parent alone.

Experiment [1] concerns breast cancer cell line SKBR3. Briefly: Caspase cascade activation in SKBR3 cells. It counts as cell-based. The note with it: Homo sapiens, SK-BR-3, 48 h, read-out: Caspase Activation Potency EC50 SKBR3.
Experiment [2] deals with human lung cancer cell line H1299. Briefly: Inhibition of cell proliferation (GI50) in H1299 cells. It counts as cell-based. The note with it: NCI-H1299, Table III, 48 h. The protocol: Human breast cancer cell lines T-47D, MX-1 and MDAMB435, human colon cancer cell line HT29, and human lung cancer cell line H1299 were grown and harvested as in Example 75. An aliquot of […] of cells (4.4×10^4 cells/mL) was added to a well of a 96-well microtiter plate containing 5 μL of a 10% DMSO in RPMI-1640 media solution containing 10 nM to 100 μM of N-(2,5-dimethoxyphenyl)-2-methylthieno[3,2-d]pyrimidin-4-amine (1 nM to 10 μM final). An aliquot of 45 μL of cells was added to a well of a 96-well microtiter plate containing 5 μL of a 10% DMSO in RPMI-1640 media solution without compound as the control sample for maximal cell proliferation (Lmax). The samples were mixed by agitation and then incubated at 37° C. for 48 h in a 5% CO2-95% humidity incubator. After incubation, the samples were removed from the incubator and 25 μL of CellTiter-Glo™ reagent (Promega) was added. The samples were mixed by agitation and incubated at room temperature for 10-15 min. Plates were then read using a luminescent plate reader (Model SPECTRAfluor Plus, Tecan) to give Ltest values.
Baseline for GI50 (dose for 50% inhibition of cell proliferation) of initial cell numbers was determined by adding an aliquot of 45 μL of cells or 45 μL of media, respectively, to wells of a 96-well microtiter plate containing 5 μL of a 10% DMSO in RPMI-1640 media solution. The samples were mixed by agitation and then incubated at 37° C. for 0.5 h in a 5% CO2-95% humidity incubator. After incubation, the samples were removed from the incubator and 25 μL of CellTiter-Glo™ reagent (Promega) was added. The samples were mixed by agitation and incubated at 37° C. for 10-15 min at room temperature in a 5% CO2-95% humidity incubator. Fluorescence was read as above, (LStart) defining luminescence for initial cell number used as baseline in GI50 determinations.
GI50 (dose for 50% inhibition of cell proliferation) is the concentration where [(LTest−Lstart)/(LMax−Lstart)]=0.5.

Take `COc1cc(Nc2ncnc3ccsc23)cc(OC)c1` [Example 12, N-(3,5-Dimethoxyphenyl)thieno[3,2-d]pyrimidin-4-amine hydrochloride]: the EC50 in experiment [1] was 0.077 µM. With `COc1ccc(OC)c(Nc2ncnc3ccsc23)c1` [Example 2, N-(2,5-Dimethoxyphenyl)thieno[3,2-d]pyrimidin-4-amine], the GI50 in experiment [2] turned out to be 1.04 µM. In other words, the single-digit micromolar range.

Broadly, the EC50 is the concentration giving half of the maximal effect. For orientation: GI50 means the concentration giving 50% growth inhibition. Low readings indicate more potent growth inhibition, high ones less potent growth inhibition.
